From patent publication US20140080795A1, “NRF2 Deficiency Influences Susceptibility to Steroid Resistance via HDAC2 Reduction” (University of Rochester, priority 2010, published 2014) come the findings set out here.

The subject of one experiment is MCP-1. In words: LPS-induced lung inflammation in mice: MCP-1 levels in lung tissue by ELISA. The class given is in vivo, mouse. As to conditions: Nrf2-/- mice, budesonide 1 and 3 mg/kg pretreatment.
For a further experiment, the system named is KC. In words: LPS-induced lung inflammation in mice: KC levels in lung homogenates by ELISA. The class given is in vivo, mouse.

SMILES strings stand for the structures.

Description for MCP-1: Briefly, age-matched WT, Nrf2−/− and HDAC2−/− were exposed to aerosolized Escherichia coli LPS (1 mg/ml) for 8 minutes. Aerosolized saline-exposed mice were used as controls, and animals were sacrificed at 24 h post last exposure. […] Monocyte chemotactic protein 1 (MCP-1) levels were measured from mouse lung soluble protein by enzyme-linked immunosorbent assay (ELISA) with the duo-antibody kit (R & D Systems). Results were normalized to protein concentration per sample. […] Briefly, age-matched wild-type, Nrf2−/− and HDAC2−/− were exposed to aerosolized Escherichia coli LPS diluted to 1 mg/ml for 8 minutes. Aerosolized saline-exposed mice were used as controls and animals were sacrificed at 24 h post last exposure (Yao et al., Am J Respir Cell Mol Biol 39: 7-18 (2008)). […] Monocyte chemotactic protein 1 (MCP-1) levels were measured from mouse lung soluble protein by enzyme-linked immunosorbent assay (ELISA) with the MCP-1 duo-antibody kit (R & D Systems). Results were normalized to protein concentration per sample.

For the compound `CCCC1O[C@@H]2C[C@H]3[C@@H]4CCC5=CC(=O)C=C[C@]5(C)[C@H]4[C@@H](O)C[C@]3(C)[C@]2(C(=O)CO)O1` (stereo partly drawn) [budesonide], the “LPS-induced release of MCP-1 in lung” value in the experiment with MCP-1 was “no inhibitory effect”. The “KC release in lung” value in the experiment on KC (HDAC2-/- mice, budesonide 3 mg/kg pretreatment) was “no significant effect”. For the same compound, the “LPS-induced release of KC in lung” value with KC (Nrf2-/- mice, budesonide 1 and 3 mg/kg pretreatment) was “no inhibitory effect”.
